According to publication PMC6469291, “2-Nitroimidazole-Furanoside Derivatives for Hypoxia Imaging—Investigation of Nucleoside Transporter Interaction, ^18F-Labeling and Preclinical PET Imaging” (Pharmaceuticals, 2019):

Tests used:
hCNT3 (SLC28A3) = target: T1, hCNT3 (SLC28A3) (Homo sapiens, UniProt Q9HAS3); test: Inhibition of [^3H]uridine uptake in yeast cells producing recombinant hCNT3; assay type: cell-based
T1 construct: expressed in transfected cells; host or cells: Saccharomyces cerevisiae
T1 sequence (Q9HAS3 1-691): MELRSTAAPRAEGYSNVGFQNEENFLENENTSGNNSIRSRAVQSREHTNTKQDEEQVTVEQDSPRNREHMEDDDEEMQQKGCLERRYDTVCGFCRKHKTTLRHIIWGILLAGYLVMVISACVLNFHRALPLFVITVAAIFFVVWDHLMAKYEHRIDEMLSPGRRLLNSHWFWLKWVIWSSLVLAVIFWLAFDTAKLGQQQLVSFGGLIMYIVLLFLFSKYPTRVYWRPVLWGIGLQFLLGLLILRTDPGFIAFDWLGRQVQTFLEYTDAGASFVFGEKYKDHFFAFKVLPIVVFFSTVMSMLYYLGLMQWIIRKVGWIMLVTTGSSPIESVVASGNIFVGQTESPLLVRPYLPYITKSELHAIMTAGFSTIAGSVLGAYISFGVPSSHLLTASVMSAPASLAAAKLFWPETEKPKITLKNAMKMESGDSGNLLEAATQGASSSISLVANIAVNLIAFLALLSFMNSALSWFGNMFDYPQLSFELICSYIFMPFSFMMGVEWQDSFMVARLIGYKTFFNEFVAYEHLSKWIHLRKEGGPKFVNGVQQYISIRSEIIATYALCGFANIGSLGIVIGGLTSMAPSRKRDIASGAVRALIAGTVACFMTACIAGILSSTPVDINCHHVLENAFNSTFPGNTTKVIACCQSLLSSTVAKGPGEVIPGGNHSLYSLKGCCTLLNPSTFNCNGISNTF
Protocol: (§1) The interaction of 2-nitroimidazole sugars with nucleoside transporters was determined by ability of the 2-nitroimidazole sugars to inhibit [^3H]uridine uptake in yeast cells producing recombinant human nucleoside transporters and results expressed as IC50 values.
(§2) Saccharomyces cerevisiae yeast was separately transformed with plasmids (pYPhENT1, pYPhENT2, pYPhCNT1, pYPhCNT2, or pYPhCNT3) encoding hNTs (hENT1, hENT2, hCNT1, hCNT2, or hCNT3, respectively) as described elsewhere. Uptake of 1 µmol/L [^3H]uridine (Moravek Biochemicals) into yeast was measured as previously described using a semi-automated cell harvester (Micro96 HARVESTER; Skatron Instruments, Tranby, Norway). Yeast was incubated at room temperature with 1 µmol/L [^3H]uridine in yeast growth media (pH 7.4) in the presence or absence (uninhibited controls) of graded concentrations (0–3 mM) of test compounds. The following compounds were used for transporter experiments: FAZA, β-FAZA, α-FAZDR, β-FAZDR. Uridine self-inhibition was used to determine maximum inhibition of mediated transport. Concentration–effect curves were subjected to nonlinear regression analysis using Prism software (version 4.03; GraphPad Software Inc.) to obtain the concentration of test compound that inhibited uridine uptake by 50%, relative to that of untreated cells (IC50 values). Each IC50 value determination was conducted with nine concentrations and four replicates per concentration and experiments were repeated two to three times.

hCNT1 (SLC28A1) = target: T2, hCNT1 (SLC28A1) (Homo sapiens, UniProt O00337); test: Inhibition of [^3H]uridine uptake in yeast cells producing recombinant hCNT1; assay type: cell-based
T2 construct: expressed in transfected cells; host or cells: Saccharomyces cerevisiae
T2 sequence (O00337 1-649): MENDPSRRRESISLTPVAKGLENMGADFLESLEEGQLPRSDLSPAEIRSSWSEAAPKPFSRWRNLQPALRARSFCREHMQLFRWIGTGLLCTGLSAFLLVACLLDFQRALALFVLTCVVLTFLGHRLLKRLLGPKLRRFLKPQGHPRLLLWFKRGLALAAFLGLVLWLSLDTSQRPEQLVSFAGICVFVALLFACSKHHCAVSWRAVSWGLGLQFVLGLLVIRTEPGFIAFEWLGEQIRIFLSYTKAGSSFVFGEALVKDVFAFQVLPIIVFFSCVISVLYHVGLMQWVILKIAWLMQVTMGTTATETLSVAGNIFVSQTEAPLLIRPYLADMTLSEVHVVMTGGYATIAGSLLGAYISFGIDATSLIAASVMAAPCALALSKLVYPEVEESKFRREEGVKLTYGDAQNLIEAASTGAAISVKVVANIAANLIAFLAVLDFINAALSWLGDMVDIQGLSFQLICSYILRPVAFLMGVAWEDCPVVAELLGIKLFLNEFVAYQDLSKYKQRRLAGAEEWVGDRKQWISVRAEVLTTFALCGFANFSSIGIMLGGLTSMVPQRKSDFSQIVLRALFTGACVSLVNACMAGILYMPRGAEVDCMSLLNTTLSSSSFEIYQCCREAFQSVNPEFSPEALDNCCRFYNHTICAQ
Protocol: as §1, §2

hENT2 (SLC29A2) = target: T3, hENT2 (SLC29A2) (Homo sapiens, UniProt Q14542); test: Inhibition of [^3H]uridine uptake in yeast cells producing recombinant hENT2; assay type: cell-based
T3 construct: expressed in transfected cells; host or cells: Saccharomyces cerevisiae
T3 sequence (Q14542 1-456): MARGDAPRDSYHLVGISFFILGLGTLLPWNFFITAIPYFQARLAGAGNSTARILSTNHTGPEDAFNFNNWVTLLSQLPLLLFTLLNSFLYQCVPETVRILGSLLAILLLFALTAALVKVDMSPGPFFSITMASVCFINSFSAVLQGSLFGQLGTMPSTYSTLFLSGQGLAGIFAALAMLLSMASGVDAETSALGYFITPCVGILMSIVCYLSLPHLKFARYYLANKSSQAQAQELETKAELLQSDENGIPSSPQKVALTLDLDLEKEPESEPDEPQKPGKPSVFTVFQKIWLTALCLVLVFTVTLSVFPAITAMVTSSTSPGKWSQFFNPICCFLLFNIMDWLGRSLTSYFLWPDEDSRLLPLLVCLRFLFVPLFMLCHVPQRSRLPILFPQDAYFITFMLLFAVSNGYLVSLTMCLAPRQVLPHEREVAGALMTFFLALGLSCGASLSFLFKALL
Protocol: as §1, §2

hENT1 (SLC29A1) = target: T4, hENT1 (SLC29A1) (Homo sapiens, UniProt Q99808); test: Inhibition of [^3H]uridine uptake in yeast cells producing recombinant hENT1; assay type: cell-based
T4 construct: expressed in transfected cells; host or cells: Saccharomyces cerevisiae
T4 sequence (Q99808 1-456): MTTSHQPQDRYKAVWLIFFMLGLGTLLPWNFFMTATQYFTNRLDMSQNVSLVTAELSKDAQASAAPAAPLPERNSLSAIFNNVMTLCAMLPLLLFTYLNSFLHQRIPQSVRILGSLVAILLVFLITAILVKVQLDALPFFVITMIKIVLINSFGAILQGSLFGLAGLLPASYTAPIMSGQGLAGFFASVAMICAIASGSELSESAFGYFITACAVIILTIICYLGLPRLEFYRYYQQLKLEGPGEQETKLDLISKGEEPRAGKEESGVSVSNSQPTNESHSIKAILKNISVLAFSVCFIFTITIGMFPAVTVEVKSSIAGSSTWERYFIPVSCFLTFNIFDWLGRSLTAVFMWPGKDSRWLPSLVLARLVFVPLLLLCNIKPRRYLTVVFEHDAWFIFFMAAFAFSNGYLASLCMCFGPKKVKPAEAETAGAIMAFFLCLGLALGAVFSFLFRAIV
Protocol: as §1, §2

hCNT2 (SLC28A2) = target: T5, hCNT2 (SLC28A2) (Homo sapiens, UniProt O43868); test: Inhibition of [^3H]uridine uptake in yeast cells producing recombinant hCNT2; assay type: cell-based
T5 construct: expressed in transfected cells; host or cells: Saccharomyces cerevisiae
T5 sequence (O43868 1-658): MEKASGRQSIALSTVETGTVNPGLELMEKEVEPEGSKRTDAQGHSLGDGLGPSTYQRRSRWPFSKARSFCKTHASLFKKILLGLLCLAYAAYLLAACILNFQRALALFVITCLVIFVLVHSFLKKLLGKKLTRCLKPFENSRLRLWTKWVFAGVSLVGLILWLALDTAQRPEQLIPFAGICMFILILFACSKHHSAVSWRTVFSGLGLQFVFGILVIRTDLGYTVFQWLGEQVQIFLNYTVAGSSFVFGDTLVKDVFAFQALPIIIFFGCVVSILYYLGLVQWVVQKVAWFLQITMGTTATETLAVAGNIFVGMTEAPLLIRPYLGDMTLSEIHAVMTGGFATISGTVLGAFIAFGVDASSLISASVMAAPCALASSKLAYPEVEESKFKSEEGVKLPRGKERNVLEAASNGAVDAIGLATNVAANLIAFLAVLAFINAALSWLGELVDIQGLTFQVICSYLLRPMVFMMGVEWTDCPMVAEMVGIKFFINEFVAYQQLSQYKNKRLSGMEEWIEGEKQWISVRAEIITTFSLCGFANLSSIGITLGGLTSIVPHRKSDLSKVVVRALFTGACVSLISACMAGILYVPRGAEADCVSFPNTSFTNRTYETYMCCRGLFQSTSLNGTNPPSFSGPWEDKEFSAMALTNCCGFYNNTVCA
Protocol: as §1, §2

CT26 colon carcinoma = test: PET hypoxia imaging of CT26 colon carcinoma bearing mice; assay type: in vivo, BALB/c mice; conditions: for tumor uptake: hypoxic CT26 tumor tissue; for tumor uptake / muscle uptake: PET; for tumor-to-muscle ratio (TMR): i.v., CT26 tumor vs. shoulder muscle, mean ± SD; for muscle uptake: normoxic muscle tissue
Protocol: The above-described CT26 mouse colon carcinoma cells were subcutaneously inoculated in the right shoulder of female BALB/c mice (1 × 10^6 cells in phosphate-buffered saline, PBS). Subsequently, the carcinomas were allowed to grow for a period of 13 days, reaching approximately 0.3 cm3. […] All animal experiments were conducted according to guidelines for the use and care of laboratory research animals under the German Animal Protection Law, and approved by local authorities (Regierungspräsidium Tübingen). […] All experiments were done using medical air as carrier gas for isoflurane anesthesia (1.5% isoflurane during PET scans, flow rate 0.4 L/min), including tracer injections, with a specialized vaporizer ([…], Louisville, KY, USA). Subsequent to the tracer injections, the animals were allowed to freely move in their home cages for an uptake period of 55 min, thus, breathing room air. […] PET scans were performed with a Siemens Inveon dedicated PET (DPET, Siemens Healthcare, Knoxville, TN, USA). PET scans were then reconstructed with a two-dimensional ordered subset expectation maximization algorithm (OSEM2D with 16 subsets and 4 iterations). Image zoom was set to 1 and matrix size to 128 × 128 yielding a final PET image spatial resolution of 0.79 × 0.79 × 0.80 mm3. PET data were manually corrected for radioactive decay of ^18F. PET image analysis was performed using the PMOD 3.2_base 64 image viewing tool (PMOD Technologies, Zürich, Switzerland). […] Finally, PET data were expressed as percent injected dose per cubic-centimeter (%ID/cc) or tumor-to-muscle ratio (TMR).

IC50 (hCNT3 (SLC28A3))	IC50 (hCNT1 (SLC28A1))	IC50 (hENT2 (SLC29A2))	IC50 (hENT1 (SLC29A1))	IC50 (hCNT2 (SLC28A2))	tumor uptake (CT26 colon carcinoma; 1 h p.i.)	tumor-to-muscle ratio (TMR) (CT26 colon carcinoma; 1 h p.i.)	muscle uptake (CT26 colon carcinoma; 1 h p.i.)	muscle clearance (CT26 colon carcinoma; 2 h p.i. relative to 1 h p.i.)	tumor clearance (CT26 colon carcinoma; 2 h p.i. relative to 1 h p.i.)	tumor uptake (CT26 colon carcinoma; 2 h p.i.)	tumor-to-muscle ratio (TMR) (CT26 colon carcinoma; 2 h p.i.)	muscle uptake (CT26 colon carcinoma; 2 h p.i.)	clearance ratio for tumor relative to muscle tissue (CT26 colon carcinoma; 3 h p.i.)	muscle clearance (CT26 colon carcinoma; 3 h p.i. relative to 1 h p.i.)	tumor clearance (CT26 colon carcinoma; 3 h p.i. relative to 1 h p.i.)	tumor uptake (CT26 colon carcinoma; 3 h p.i.)	tumor-to-muscle ratio (TMR) (CT26 colon carcinoma; 3 h p.i.)	muscle uptake (CT26 colon carcinoma; 3 h p.i.)	SMILES
124 ± 33 µM	269 ± 4 µM	> 3000 µM																	O=[N+]([O-])c1nccn1C1CC(O)C(CF)O1 (stereo not drawn) [β-FAZDR]
2310 ± 352 µM	> 3000 µM	> 3000 µM	2070 ± 50 µM	> 3000 µM															O=[N+]([O-])c1nccn1[C@@H]1O[C@H](CF)[C@@H](O)[C@@H]1O [β-FAZA, 1-(5′-Deoxy-5′-fluoro-β-D-arabinofuranosyl)-2-nitroimidazole]
					0.40 ± 0.07 %ID/cc	2.52 ± 0.94	0.17 ± 0.03 %ID/cc	58.4 ± 8.2%	56.6 ± 6.8%	0.18 ± 0.06 %ID/cc	2.65 ± 0.87	0.07 ± 0.01 %ID/cc	0.95 ± 0.02	75.3 ± 6.4%	71.5 ± 7.0%	0.12 ± 0.05 %ID/cc	2.91 ± 1.01	0.04 ± 0.01 %ID/cc	O=[N+]([O-])c1nccn1[C@H]1C[C@H](O)[C@@H](C[18F])O1 [β-[^18F]FAZDR, [^18F]fluoro-azomycin-β-deoxyriboside]
